According to the supplement of paper PMC10307832:

Experiments:
Test in all cases: relative viability (nuclei count vs DMSO), 5 days (fraction); higher = more cells survive
Neratinib + Dasatinib = compound: CCOc1cc2ncc(C#N)c(Nc3ccc(OCc4ccccn4)c(Cl)c3)c2cc1NC(=O)/C=C/CN(C)C [Neratinib] + Cc1nc(Nc2ncc(C(=O)Nc3c(C)cccc3Cl)s2)cc(N2CCN(CCO)CC2)n1 [Dasatinib] (partner 0.075 µM)
Procedure, shortened: (§1)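 One day after seeding in 1536-well plates, lung cancer cell lines were dosed by pin tool. Dosing was either single-drug or a fixed anchor-drug dose plus five library-drug doses (not always all listed) in √10 steps. After 5 days, nuclei were stained in one fix-and-stain step and counted on 4× images, and relative viability is the nuclei count of treated wells over that of vehicle wells, given as the median of duplicate plates.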

Neratinib + Navitoclax = compound: CCOc1cc2ncc(C#N)c(Nc3ccc(OCc4ccccn4)c(Cl)c3)c2cc1NC(=O)/C=C/CN(C)C [Neratinib] + CC1(C)CCC(c2ccc(Cl)cc2)=C(CN2CCN(c3ccc(C(=O)NS(=O)(=O)c4ccc(N[C@H](CCN5CCOCC5)CSc5ccccc5)c(S(=O)(=O)C(F)(F)F)c4)cc3)CC2)C1 [Navitoclax] (partner 0.5 µM)
Procedure, shortened: as §1

Neratinib + Luminespib = compound: CCOc1cc2ncc(C#N)c(Nc3ccc(OCc4ccccn4)c(Cl)c3)c2cc1NC(=O)/C=C/CN(C)C [Neratinib] + CCNC(=O)c1noc(-c2cc(C(C)C)c(O)cc2O)c1-c1ccc(CN2CCOCC2)cc1 [Luminespib] (partner 0.01 µM)
Procedure, shortened: as §1

Neratinib + Bortezomib = compound: CCOc1cc2ncc(C#N)c(Nc3ccc(OCc4ccccn4)c(Cl)c3)c2cc1NC(=O)/C=C/CN(C)C [Neratinib] + CC(C)C[C@H](NC(=O)[C@H](Cc1ccccc1)NC(=O)c1cnccn1)B(O)O [Bortezomib] (partner 0.002 µM)
Procedure, shortened: as §1

Cell Line	relative viability (Neratinib + Dasatinib; first compound 0.01 µM)	relative viability (Neratinib + Dasatinib; first compound 0.03162 µM)	relative viability (Neratinib + Dasatinib; first compound 0.1 µM)	relative viability (Neratinib + Dasatinib; first compound 0.3162 µM)	relative viability (Neratinib + Dasatinib; first compound 1 µM)	relative viability (Neratinib + Navitoclax; first compound 0.01 µM)	relative viability (Neratinib + Navitoclax; first compound 0.03162 µM)	relative viability (Neratinib + Navitoclax; first compound 0.1 µM)	relative viability (Neratinib + Navitoclax; first compound 0.3162 µM)	relative viability (Neratinib + Navitoclax; first compound 1 µM)	relative viability (Neratinib + Luminespib; first compound 0.01 µM)	relative viability (Neratinib + Luminespib; first compound 0.03162 µM)	relative viability (Neratinib + Luminespib; first compound 0.1 µM)	relative viability (Neratinib + Luminespib; first compound 0.3162 µM)	relative viability (Neratinib + Luminespib; first compound 1 µM)	relative viability (Neratinib + Bortezomib; first compound 0.01 µM)	relative viability (Neratinib + Bortezomib; first compound 0.03162 µM)	relative viability (Neratinib + Bortezomib; first compound 0.1 µM)	relative viability (Neratinib + Bortezomib; first compound 0.3162 µM)	relative viability (Neratinib + Bortezomib; first compound 1 µM)
RERF-LC-KJ	0.941	0.822	0.681	0.653	0.335	0.854	1.07	0.724	0.69	0.493	1.45	1.18	1.16	1.14	0.531	1.19	1.07	0.87	0.878	0.596
SK-LU-1	0.174	0.175	0.168	0.195	0.173	0.842	0.979	–	0.0386	0.523	0.187	0.213	0.192	0.178	0.176	1.3	1.5	1.34	1.14	0.504
SW 1573	0.455	0.519	0.455	0.495	0.322	1.32	1.15	0.862	0.87	0.804	0.235	0.196	0.333	0.188	0.132	1.07	1.28	0.998	1.08	0.843
UMC-11	0.482	0.505	0.399	0.384	0.425	0.283	0.332	0.264	0.316	0.252	1.15	1.1	0.964	0.903	0.763	0.623	0.964	0.823	0.615	0.729
